Laboratory results reported in patent publication US8383581B2, “Short-chain peptides as parathyroid hormone (PTH) receptor agonist” (Cadila Healthcare Limited, priority 2009, dated 2013).
Where a SMILES comes first, the peptide text is derived from it. [ ]: non-standard residue; d: D form. ξ: configuration not given here. ξαMeBip(2'-Et,4'-OMe) = CCc1cc(OC)ccc1-c1ccc(CC(C)(N)C(=O)O)cc1; ξBip(2'-Et-4'-OMe) = CCc1cc(OC)ccc1-c1ccc(CC(N)C(=O)O)cc1; Arg(NO2) = N=C(NCCC[C@H](N)C(=O)O)N[N+](=O)[O-]; ξαMePhe(2,6-F2) = CC(N)(Cc1c(F)cccc1F)C(=O)O; ξαMe(hhPhe) = CC(N)(CCCc1ccccc1)C(=O)O; ξαMePhe(2-F) = CC(N)(Cc1ccccc1F)C(=O)O; ξαMeW = CC(N)(Cc1c[nH]c2ccccc12)C(=O)O; hhPhe = N[C@@H](CCCc1ccccc1)C(=O)O; hArg = N=C(N)NCCCC[C@H](N)C(=O)O; hCit = NC(=O)NCCCC[C@H](N)C(=O)O; Cit = NC(=O)NCCC[C@H](N)C(=O)O; ξαMeF = CC(N)(Cc1ccccc1)C(=O)O; ξαMeNle = CCCCC(C)(N)C(=O)O; ξαMeV = CC(C)C(C)(N)C(=O)O; Nle = CCCC[C@H](N)C(=O)O; Orn = NCCC[C@H](N)C(=O)O; Ac5c = NC1(C(=O)O)CCCC1; Ac3c = NC1(C(=O)O)CC1; Aib = CC(C)(N)C(=O)O

Experiments:
Format in all cases: in vitro ADME
[1] = Stability of peptides in human liver microsomes; conditions: human, microsomes; for % degradation of peptides in 24 h when incubated with liver microsomes: 2 μM, pH 7.8
Description: (§1) b) Stability of Peptides in Human Plasma, Simulated Gastric Fluid, Intestinal Fluid and Liver Microsomes (Ex-Vivo): Different short-chain peptides (final concentration 2 μM) were incubated with either pooled human plasma (7.5 μL) or simulated gastric fluid (pH 1.5; composition HCl, NaCl and Pepsin) or simulated intestinal fluid (pH 7.5) or human liver microsomes, for 0, 2, 4, 6, 12 and 24 h (37° C.; 50 mM triethanolamine-HCl buffer; pH 7.8). Concentrations of human plasma/simulated gastric fluid/simulated intestinal fluid/human liver microsomes were selected in preliminary experiments to provide degradation of approximately 50% of PTH(1-34) within 1 h, therefore allowing time-dependent degradation to be viewed over 24 h. Reactions were terminated by the addition of TFA/H2O ([…], 10% (v/v)). The reaction products were then applied to a Vydac C18 analytical column (4.6×250-mm) and the major degradation fragment separated from intact short-chain peptides. The column was equilibrated with TFA/H20, at a flow rate of 1 mL/min. Using 0.1% (v/v) TFA in 70% acetonitrile/H2O, the concentration of acetonitrile in the eluting solvent was raised from 0% to 28% over 10 min and from 28% to 42% over 30 min. The absorbance was monitored at 206 nm using UV detector and peaks were collected manually prior to ESI-MS analysis. Area under the curve was measured for test peptides and their metabolites and percentage degradation were calculated at each time point over a period of 24 h. Stability study results of selected peptides, in human plasma, simulated gastric fluid, intestinal fluid and liver microsomes (in vitro) are listed in Table 4.

[2] = Stability of peptides in simulated intestinal fluid (pH 7.5); conditions: pH 7.5; for half-life / half-life (t1/2) in simulated intestinal fluid: simulated gi fluid; for % degradation of peptides in 24 h when incubated with simulated intestinal fluid: 2 μM
Description: as §1

[3] = Stability of peptides in human plasma; conditions: human, plasma; for metabolised at 24 h, 2 μM: pH 7.8
Description: as §1

[4] = Stability of peptides in simulated gastric fluid (pH 1.5; HCl, NaCl and Pepsin); conditions: pH 1.5; for % degradation of peptides in 24 h when incubated with simulated gastric fluid: 2 μM; for half-life / half-life (t1/2) in simulated gastric fluid: simulated gi fluid
Description: as §1

SMILES	half-life (t1/2) in liver microsomes [1]	% degradation of peptides in 24 h when incubated with liver microsomes [1]	half-life [2]	% degradation of peptides in 24 h when incubated with simulated intestinal fluid [2]	half-life [3]	metabolised at 24 h, 2 μM [3]	% degradation of peptides in 24 h when incubated with simulated gastric fluid [4]	half-life [4]	half-life [1]	half-life (t1/2) in simulated intestinal fluid [2]	half-life (t1/2) in simulated gastric fluid [4]	half-life (t1/2) in human plasma [3]
CCCC[C@H](NC(=O)C(C)(Cc1c(F)cccc1F)NC(=O)[C@H](CCC(N)=O)NC(=O)[C@@H](NC(=O)[C@H](CCC(=O)O)NC(=O)C1(NC(=O)[C@@H](NC(=O)C2(N)CCCC2)C(C)C)CCCC1)[C@@H](C)CC)C(=O)N[C@@H](Cc1c[nH]cn1)C(=O)N[C@@H](CCC(N)=O)C(=O)N[C@@H](CCCCNC(=N)N)C(=O)N[C@@H](C)C(=O)N[C@@H](CCCCN)C(=O)NC(C)(Cc1c(F)cccc1F)C(N)=O (stereo partly drawn) [Seq. ID. 115] (H-[Ac5c]V[Ac5c]EIQ[ξαMePhe(2,6-F2)][Nle]HQ[hArg]AK[ξαMePhe(2,6-F2)]-NH2)		79%		55%	8 h	78%	12%		1 h	(6) h	(8) h	
CCCC[C@H](NC(=O)[C@H](CC(C)C)NC(=O)[C@H](CCC(N)=O)NC(=O)[C@@H](NC(=O)[C@H](CCC(=O)O)NC(=O)C(C)(C)NC(=O)[C@@H](NC(=O)C1(N)CCCC1)C(C)C)[C@@H](C)CC)C(=O)N[C@@H](Cc1c[nH]cn1)C(=O)N[C@@H](CCC(N)=O)C(=O)NC(C)(Cc1c(F)cccc1F)C(=O)NC(C)(C)C(=O)N[C@@H](CCCNC(N)=O)C(=O)NC(Cc1ccc(-c2ccc(OC)cc2CC)cc1)C(=O)N[C@@H](CCCc1ccccc1)C(N)=O (stereo partly drawn) [Seq. ID. 805] (H-[Ac5c]V[Aib]EIQL[Nle]HQ[ξαMePhe(2,6-F2)][Aib][Cit][ξBip(2'-Et-4'-OMe)][hhPhe]-NH2)		82%	> 24 h	00%	> 24 h	0%	49%	4 h	2 h			
CC[C@H](C)[C@H](NC(=O)[C@H](CCC(=O)O)NC(=O)C(C)(C)NC(=O)[C@@H](NC(=O)C1(N)CC1)C(C)C)C(=O)N[C@@H](CCC(N)=O)C(=O)N[C@@H](CC(C)C)C(=O)N[C@@H](CCSC)C(=O)N[C@@H](Cc1c[nH]cn1)C(=O)N[C@@H](CCC(N)=O)C(=O)N[C@@H](CCCCNC(=N)N)C(=O)NC(C)(C)C(=O)N[C@@H](CCCCN)C(=O)NC(C)(Cc1ccccc1)C(N)=O (stereo partly drawn) [Seq. ID. 14] (H-[Ac3c]V[Aib]EIQLMHQ[hArg][Aib]K[ξαMeF]-NH2)		77%		43%	8 h	69%	11%	7 h	2 h	(6) h		
CCCC[C@H](NC(=O)C(C)(Cc1ccccc1F)NC(=O)[C@H](CCC(N)=O)NC(=O)[C@@H](NC(=O)[C@H](CCC(=O)O)NC(=O)C(C)(C)NC(=O)[C@@H](NC(=O)C1(N)CCCC1)C(C)C)[C@@H](C)CC)C(=O)N[C@@H](Cc1c[nH]cn1)C(=O)N[C@@H](CCC(N)=O)C(=O)N[C@@H](CCCCNC(=N)N)C(=O)NC(C)(C)C(=O)N[C@@H](CCCNC(=N)N[N+](=O)[O-])C(=O)NC(C)(Cc1c(F)cccc1F)C(N)=O (stereo partly drawn) [Seq. ID. 270] (H-[Ac5c]V[Aib]EIQ[ξαMePhe(2-F)][Nle]HQ[hArg][Aib][Arg(NO2)][ξαMePhe(2,6-F2)]-NH2)		100%	0.5 h	100%		78%	100%	0.5 h	0.5 h			(9) h

Next, values leading:

half-life (t1/2) in liver microsomes [1]	% degradation of peptides in 24 h when incubated with liver microsomes [1]	half-life [2]	% degradation of peptides in 24 h when incubated with simulated intestinal fluid [2]	half-life [3]	metabolised at 24 h, 2 μM [3]	% degradation of peptides in 24 h when incubated with simulated gastric fluid [4]	half-life [4]	half-life [1]	half-life (t1/2) in simulated intestinal fluid [2]	half-life (t1/2) in simulated gastric fluid [4]	half-life (t1/2) in human plasma [3]	SMILES
(5) h	32%	> 24 h	00%	> 24 h	0%	00%	> 24 h					CCc1cc(OC)ccc1-c1ccc(CC(C)(NC(=O)[C@H](CCCCN)NC(=O)[C@H](C)NC(=O)[C@H](CCCCNC(=N)N)NC(=O)[C@H](CCC(N)=O)NC(=O)[C@H](Cc2c[nH]cn2)NC(=O)[C@H](CCSC)NC(=O)[C@H](CC(C)C)NC(=O)[C@H](CCC(N)=O)NC(=O)[C@@H](NC(=O)[C@H](CCC(=O)O)NC(=O)C(C)(C)NC(=O)[C@@H](NC(=O)C(C)(C)N)C(C)C)[C@@H](C)CC)C(=O)N[C@@H](CCCc2ccccc2)C(N)=O)cc1 (stereo partly drawn) [Seq. ID. 890] (H-[Aib]V[Aib]EIQLMHQ[hArg]AK[ξαMeBip(2'-Et,4'-OMe)][hhPhe]-NH2)
	84%	> 22 h	05%	> 23 h	1%	43%	4 h	2 h				CCCC[C@H](NC(=O)C(C)(Cc1c(F)cccc1F)NC(=O)[C@H](CCC(N)=O)NC(=O)[C@@H](NC(=O)[C@H](CCC(=O)O)NC(=O)C(C)(C)NC(=O)[C@@H](NC(=O)C1(N)CCCC1)C(C)C)[C@@H](C)CC)C(=O)N[C@@H](Cc1c[nH]cn1)C(=O)N[C@@H](CCC(N)=O)C(=O)N[C@@H](CCCN)C(=O)N[C@@H](C)C(=O)N[C@@H](CCCNC(N)=O)C(=O)NC(Cc1ccc(-c2ccc(OC)cc2CC)cc1)C(=O)N[C@@H](CCCc1ccccc1)C(N)=O (stereo partly drawn) [Seq. ID. 829] (H-[Ac5c]V[Aib]EIQ[ξαMePhe(2,6-F2)][Nle]HQ[Orn]A[Cit][ξBip(2'-Et-4'-OMe)][hhPhe]-NH2)
	100%	0.5 h	100%		70%	100%	0.5 h	0.5 h			(9) h	CCCCC(C)(NC(=O)[C@H](CC(C)C)NC(=O)[C@H](CCC(N)=O)NC(=O)[C@@H](NC(=O)[C@H](CCC(=O)O)NC(=O)C(C)(C)NC(=O)[C@@H](NC(=O)C(C)(C)N)C(C)C)[C@@H](C)CC)C(=O)N[C@@H](Cc1c[nH]cn1)C(=O)N[C@@H](CCC(N)=O)C(=O)N[C@@H](CCCCNC(=N)N)C(=O)N[C@@H](C)C(=O)N[C@@H](CCCCNC(=N)N)C(=O)NC(C)(Cc1c[nH]c2ccccc12)C(=O)NC(C)(CCCc1ccccc1)C(N)=O (stereo partly drawn) [Seq. ID. 949] (H-[Aib]V[Aib]EIQL[ξαMeNle]HQ[hArg]A[hArg][ξαMeW][ξαMe(hhPhe)]-NH2)
	81%		45%	8 h	77%	14%		1 h	(6) h	(8) h		CCCC[C@H](NC(=O)C(C)(Cc1c(F)cccc1F)NC(=O)[C@H](CCC(N)=O)NC(=O)[C@@H](NC(=O)[C@H](CCC(=O)O)NC(=O)C(C)(C)NC(=O)[C@@H](NC(=O)C(C)(C)N)C(C)C)[C@@H](C)CC)C(=O)N[C@@H](Cc1c[nH]cn1)C(=O)N[C@@H](CCC(N)=O)C(=O)N[C@@H](CCCCNC(N)=O)C(=O)N[C@@H](C)C(=O)N[C@@H](CCCNC(N)=O)C(=O)NC(Cc1ccc(-c2ccc(OC)cc2CC)cc1)C(=O)N[C@@H](CCCc1ccccc1)C(N)=O (stereo partly drawn) [Seq. ID. 860] (H-[Aib]V[Aib]EIQ[ξαMePhe(2,6-F2)][Nle]HQ[hCit]A[Cit][ξBip(2'-Et-4'-OMe)][hhPhe]-NH2)
(5) h	33%	> 22 h	09%	> 20 h	10%	08%	> 22 h					CCCCC(C)(NC(=O)[C@H](CC(C)C)NC(=O)[C@H](CCC(N)=O)NC(=O)[C@@H](NC(=O)[C@H](CCC(=O)O)NC(=O)C(C)(C)NC(=O)[C@@H](NC(=O)C1(NC(=O)C(C)(N)C(C)C)CCCC1)C(C)C)[C@@H](C)CC)C(=O)N[C@@H](Cc1c[nH]cn1)C(=O)N[C@@H](CCC(N)=O)C(=O)N[C@@H](CCCCNC(=N)N)C(=O)N[C@@H](C)C(=O)N[C@@H](CCCCNC(=N)N)C(=O)NC(C)(Cc1ccccc1F)C(=O)NC(C)(CCCc1ccccc1)C(N)=O (stereo partly drawn) [Seq. ID. 939] (H-[ξαMeV][Ac5c]V[Aib]EIQL[ξαMeNle]HQ[hArg]A[hArg][ξαMePhe(2-F)][ξαMe(hhPhe)]-NH2)
